Data reported in patent US11685732B2, “MYST family histone acetyltransferase inhibitors” (Epizyme, Inc., priority 2017, dated 2023).

The compounds below were run against KAT-5 (Homo sapiens (Human), UniProt Q92993) (assay: KAT-5 biochemical inhibition assay (SAMDI mass spectrometry)). Details: not given.
Procedure: (§1) KAT-5. Enzyme assay buffer was 50 mM Tris pH 8.0, 0.002% Tween20, 0.005% bovine skin gelatin, and 1 mM dithiothreitol (DTT). For determination of IC50 values, compounds were serially diluted with 2% (v/v) DMSO in the final reaction, pre-incubating each dilution of each compound with 40 μL of assay buffer containing KAT-5 enzyme (9 nM final concentration). 10 μL of assay buffer containing 1 μM peptide substrate and 0.5 μM acetyl coenzyme A (final concentrations) was added. Reactions (50 μL total) were then carried out at 25° C. for 90 minutes. Reactions were terminated by the addition of 0.5% formic acid (final concentration), and a sample of each reaction was analyzed by SAMDI Tech, Inc. (Chicago, Ill.) using self-assembled monolayer desorption/ionization time-of-flight mass spectrometry (Mrksich, M. (2008) Mass spectrometry of self-assembled monolayers: a new tool for molecular surface science. ACS Nano 2, 7-18).

KAT-5, sequence (Q92993 other isoform, or with tags, fused parts or gaps): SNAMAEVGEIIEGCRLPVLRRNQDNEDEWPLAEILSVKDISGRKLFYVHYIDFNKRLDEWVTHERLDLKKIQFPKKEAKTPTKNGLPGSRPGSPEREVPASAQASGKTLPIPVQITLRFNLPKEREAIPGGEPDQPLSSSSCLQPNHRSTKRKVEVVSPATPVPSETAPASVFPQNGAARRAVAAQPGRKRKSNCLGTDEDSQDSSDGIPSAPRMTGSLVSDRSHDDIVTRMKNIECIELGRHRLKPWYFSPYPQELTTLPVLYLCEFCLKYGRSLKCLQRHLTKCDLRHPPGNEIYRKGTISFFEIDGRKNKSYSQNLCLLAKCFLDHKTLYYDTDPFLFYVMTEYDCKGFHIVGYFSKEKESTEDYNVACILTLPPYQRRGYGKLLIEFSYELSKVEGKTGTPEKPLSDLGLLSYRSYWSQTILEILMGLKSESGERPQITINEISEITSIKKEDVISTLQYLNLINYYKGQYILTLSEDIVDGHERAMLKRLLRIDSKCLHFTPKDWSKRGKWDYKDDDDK

Row | Structure (SMILES) | IC50 [µM]
1 | CC(=O)NCc1c(-c2cn(C)cn2)cc(C(=O)NNS(=O)(=O)CC2CCCCC2)c(F)c1Cl [Compound I-470] | > 100
2 | Cn1cnc(-c2cc(Cl)c(F)c(C(=O)NNS(=O)(=O)Cc3c(Cl)cnn3C)c2)c1 [Compound I-477] | < 10
3 | Cn1cnc(-c2cc(Cl)c(F)c(C(=O)NNS(=O)(=O)Cc3ccnn3C)c2)c1 [Compound I-482] | 10 to 50

Continued, values first:

Row | IC50 [µM] | Structure (SMILES)
4 | < 10 | COc1cnc(S(=O)(=O)NNC(=O)c2cc(-c3cn(C)cn3)cc(Cl)c2F)c(F)c1 [Compound I-468]
5 | > 100 | Cn1cnc(-c2cc(Cl)c(F)c(C(=O)NNS(=O)(=O)CC3CN(C(=O)OC(C)(C)C)CCN3C(=O)OC(C)(C)C)c2)c1 (centres unmarked) [Compound I-469]

Same assay, conditions: Table 5

Row | IC50 [µM] | Structure (SMILES)
6 | ≤ 10 | Cc1cccc(-c2cc(Cl)c(F)c(C(=O)NNS(=O)(=O)CC3CN(C)CCO3)c2)c1 (centres unmarked) [Compound A-11]
7 | > 100 | Cc1cccc(-c2cc(Cl)c(F)c(C(=O)NNS(=O)(=O)CCCN(C)Cc3ccccc3)c2)c1 [Compound A-18]

What follows are compounds tested against KAT-6A (Homo sapiens (Human), UniProt Q92794) (assay: KAT-6A biochemical inhibition assay (SAMDI mass spectrometry)). Details: not given.
Procedure: as §1, with “KAT-6A. Enzyme” for “KAT-5. Enzyme”, “containing KAT-6A” for “containing KAT-5”, “enzyme (12.5” for “enzyme (9”, “and 1” for “and 0.5”

KAT-6A, sequence (Q92794 other isoform, or with tags, fused parts or gaps): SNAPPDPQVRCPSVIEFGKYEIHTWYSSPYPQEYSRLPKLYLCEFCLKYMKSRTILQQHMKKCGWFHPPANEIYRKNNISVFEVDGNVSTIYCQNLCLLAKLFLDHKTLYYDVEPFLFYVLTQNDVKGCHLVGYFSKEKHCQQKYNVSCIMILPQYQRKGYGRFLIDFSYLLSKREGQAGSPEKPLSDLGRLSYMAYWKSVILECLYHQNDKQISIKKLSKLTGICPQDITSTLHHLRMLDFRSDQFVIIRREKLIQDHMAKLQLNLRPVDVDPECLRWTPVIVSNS

Row | Structure (SMILES) | IC50 [µM]
8 | CO[C@@H]1CCCC[C@@H]1CS(=O)(=O)NNC(=O)c1cc(-c2cn(C)cn2)cc(Cl)c1F [Compound I-435] | < 10
9 | Cn1cnc(-c2cc(Cl)c(F)c(C(=O)NNS(=O)(=O)CC3CC3)c2)c1 [Compound I-460] | 10 to 50
10 | COc1ccc(S(=O)(=O)NNC(=O)c2cc(-c3cn(C)cn3)cc(Cl)c2F)cc1OCc1ccccc1 [Compound I-457] | 10 to 50
11 | COc1cc(F)c(S(=O)(=O)NNC(=O)c2cc(-c3cn(C)cn3)cc(Cl)c2F)c(F)c1 [Compound I-421] | < 10
12 | Cn1cnc(-c2cc(Cl)c(F)c(C(=O)NNS(=O)(=O)C3CCN(CC(F)(F)F)C3)c2)c1 (centres unmarked) [Compound I-452] | 10 to 50
13 | COc1cnc(Cl)c(S(=O)(=O)NNC(=O)c2cc(-c3cn(C)cn3)cc(Cl)c2F)c1 [Compound I-464] | < 10
14 | Cn1cnc(-c2cc(Cl)c(F)c(C(=O)NNS(=O)(=O)c3cccc(O)c3F)c2)c1 [Compound I-444] | < 10
15 | Cn1cnc(-c2cc(Cl)c(F)c(C(=O)NNS(=O)(=O)c3cc(OCc4ccccc4)ccc3F)c2)c1 [Compound I-450] | < 10
16 | CCN1CC(CS(=O)(=O)NNC(=O)c2cc(-c3cn(C)cn3)cc(Cl)c2F)CCC1=O (centres unmarked) [Compound I-424] | 10 to 50
17 | Cn1cnc(-c2cc(Cl)c(F)c(C(=O)NNS(=O)(=O)CC3CCCN(CC(F)(F)F)C3)c2)c1 (centres unmarked) [Compound I-437] | 10 to 50
18 | COc1cc(F)c(S(=O)(=O)NNC(=O)c2cc(-c3cn(C)cn3)cc(Cl)c2F)cc1OCc1ccccc1 [Compound I-451] | 10 to 50
19 | CO[C@H]1CCCC[C@@H]1CS(=O)(=O)NNC(=O)c1cc(-c2cn(C)cn2)cc(Cl)c1F [Compound I-434] | < 10
20 | CCNC(=O)N[C@H]1CC[C@H](C(C)S(=O)(=O)NNC(=O)c2cc(-c3cn(C)cn3)cc(Cl)c2F)CC1 (some centres unmarked) [Compound I-455] | 10 to 50
21 | CN(C)CCOc1cccc(S(=O)(=O)NNC(=O)c2cc(-c3cn(C)cn3)cc(Cl)c2F)c1 [Compound I-432] | < 10
22 | CC(=O)NCc1c(-c2cn(C)cn2)cc(C(=O)NNS(=O)(=O)CC2CCCCC2)c(F)c1Cl [Compound I-470] | 10 to 50
23 | Cn1cnc(-c2cc(Cl)c(F)c(C(=O)NNS(=O)(=O)Cc3c(Cl)cnn3C)c2)c1 [Compound I-477] | 10 to 50
24 | COCCOC1CCCC(CS(=O)(=O)NNC(=O)c2cc(-c3cn(C)cn3)cc(Cl)c2F)C1 (centres unmarked) [Compound I-461] | < 10
25 | Cn1cnc(-c2cc(Cl)c(F)c(C(=O)NNS(=O)(=O)Cc3ccnn3C)c2)c1 [Compound I-482] | 10 to 50
26 | Cn1cnc(-c2cc(Cl)c(F)c(C(=O)NNS(=O)(=O)c3cccc(OCc4ccccc4)c3F)c2)c1 [Compound I-442] | < 10
27 | Cn1cnc(-c2cc(Cl)c(F)c(C(=O)NNS(=O)(=O)c3cccnc3O)c2)c1 [Compound I-430] | 10 to 50
28 | CCNC(=O)N[C@H]1CC[C@@H](C(C)S(=O)(=O)NNC(=O)c2cc(-c3cn(C)cn3)cc(Cl)c2F)CC1 (some centres unmarked) [Compound I-454] | < 10
29 | CCNC(=O)N(C)C1CC(CS(=O)(=O)NNC(=O)c2cc(-c3cn(C)cn3)cc(Cl)c2F)C1 (centres unmarked) [Compound I-428] | < 10
30 | COc1ccc(S(=O)(=O)NNC(=O)c2cc(-c3cn(C)cn3)cc(Cl)c2F)c(F)c1O [Compound I-465] | < 10
31 | COc1ccc(S(=O)(=O)NNC(=O)c2cc(-c3cn(C)cn3)cc(Cl)c2F)cc1O [Compound I-459] | < 10
32 | CC([C@H]1CC[C@@H](NC(=O)OC(C)(C)C)CC1)S(=O)(=O)NNC(=O)c1cc(-c2cn(C)cn2)cc(Cl)c1F (some centres unmarked) [Compound I-446] | < 10
33 | COCCOC1CCC(CS(=O)(=O)NNC(=O)c2cc(-c3cn(C)cn3)cc(Cl)c2F)CC1 (centres unmarked) [Compound I-463] | < 10

The remaining lines, values ahead:

Row | IC50 [µM] | Structure (SMILES)
34 | 10 to 50 | Cn1cnc(-c2cc(Cl)c(F)c(C(=O)NNS(=O)(=O)C3CCN(CC(F)(F)F)CC3)c2)c1 [Compound I-445]
35 | 10 to 50 | Cn1cnc(-c2cc(Cl)c(F)c(C(=O)NNS(=O)(=O)C3CCC4CCC3C4)c2)c1 (centres unmarked) [Compound I-427]
36 | < 10 | CCOc1ccc(S(=O)(=O)NNC(=O)c2cc(-c3cn(C)cn3)cc(Cl)c2F)c(F)c1 [Compound I-441]
37 | < 10 | COc1cnc(S(=O)(=O)NNC(=O)c2cc(-c3cn(C)cn3)cc(Cl)c2F)c(F)c1 [Compound I-468]
38 | 10 to 50 | Cn1cnc(-c2cc(Cl)c(F)c(C(=O)NNS(=O)(=O)CC3CCN(CC(F)(F)F)CC3)c2)c1 [Compound I-431]
39 | < 10 | Cn1cnc(-c2cc(Cl)c(F)c(C(=O)NNS(=O)(=O)C[C@H]3CC[C@H](NCC(F)(F)F)CC3)c2)c1 [Compound I-466]
40 | > 100 | Cn1cnc(-c2cc(C(=O)NNS(=O)(=O)CC3CCCCC3)c(F)c(Cl)c2C#N)c1 [Compound I-443]
41 | 10 to 50 | Cn1cnc(-c2cc(Cl)c(F)c(C(=O)NNS(=O)(=O)C3CCCN(CC(F)(F)F)C3)c2)c1 (centres unmarked) [Compound I-456]
42 | > 100 | CC([C@H]1CC[C@@H](N)CC1)S(=O)(=O)NNC(=O)c1cc(-c2cn(C)cn2)cc(Cl)c1F (some centres unmarked) [Compound I-448]
43 | < 10 | Cn1cnc(-c2cc(Cl)c(F)c(C(=O)NNS(=O)(=O)c3cccc(O)c3)c2)c1 [Compound I-429]
44 | > 100 | CC([C@H]1CC[C@H](N)CC1)S(=O)(=O)NNC(=O)c1cc(-c2cn(C)cn2)cc(Cl)c1F (some centres unmarked) [Compound I-449]
45 | < 10 | COc1cc(F)c(S(=O)(=O)NNC(=O)c2cc(-c3cn(C)cn3)cc(Cl)c2F)cc1O [Compound I-458]
46 | > 100 | COCCc1cn(Cc2ccc(OC)cc2)cc1-c1cc(Cl)c(F)c(C(=O)NNS(=O)(=O)CC2CCOCC2)c1 [Compound I-436]
47 | < 10 | Cn1cnc(-c2cc(Cl)c(F)c(C(=O)NNS(=O)(=O)c3ccc(F)cc3F)c2)c1 [Compound I-423]
48 | 10 to 50 | COc1ccc(S(=O)(=O)NNC(=O)c2cc(-c3cn(C)cn3)cc(Cl)c2F)c(Cl)c1 [Compound I-426]
49 | > 100 | Cn1cnc(-c2cc(Cl)c(F)c(C(=O)NNS(=O)(=O)CC3CN(C(=O)OC(C)(C)C)CCN3C(=O)OC(C)(C)C)c2)c1 (centres unmarked) [Compound I-469]
50 | < 10 | COCCOc1ccc(S(=O)(=O)NNC(=O)c2cc(-c3cn(C)cn3)cc(Cl)c2F)c(F)c1 [Compound I-440]
51 | 50 to 100 | CCN(C)C(=O)N(C)C1CC(CS(=O)(=O)NNC(=O)c2cc(-c3cn(C)cn3)cc(Cl)c2F)C1 (centres unmarked) [Compound I-425]
52 | < 10 | CC(C)Oc1ccc(S(=O)(=O)NNC(=O)c2cc(-c3cn(C)cn3)cc(Cl)c2F)c(F)c1 [Compound I-439]
53 | < 10 | CC([C@H]1CC[C@H](NC(=O)OC(C)(C)C)CC1)S(=O)(=O)NNC(=O)c1cc(-c2cn(C)cn2)cc(Cl)c1F (some centres unmarked) [Compound I-447]
54 | > 100 | CNCCOc1ccc(S(=O)(=O)NNC(=O)c2cc(-c3cn(C)cn3)cc(Cl)c2F)cc1 [Compound I-422]
55 | < 10 | Cn1cnc(-c2cc(Cl)c(F)c(C(=O)NNS(=O)(=O)c3cc(O)ccc3F)c2)c1 [Compound I-453]
56 | < 10 | Cn1cnc(-c2cc(Cl)c(F)c(C(=O)NNS(=O)(=O)c3ccc(Cl)cc3F)c2)c1 [Compound I-438]

Same assay, conditions: Table 5

Row | Structure (SMILES) | IC50 [µM]
57 | Cc1cccc(-c2cc(Cl)c(F)c(C(=O)NNS(=O)(=O)CC3CCCN(C)C3)c2)c1 (centres unmarked) [Compound A-8] | > 100
58 | Cc1cccc(-c2cc(Cl)c(F)c(C(=O)NNS(=O)(=O)CC3CN(C(=O)OC(C)(C)C)CCO3)c2)c1 (centres unmarked) [Compound A-4] | ≤ 10
59 | Cc1cccc(-c2cc(Cl)c(F)c(C(=O)NNS(=O)(=O)CC3CNCCO3)c2)c1 (centres unmarked) [Compound A-5] | 10 to 50
60 | Cc1cccc(-c2cc(C)c(F)c(C(=O)NNS(=O)(=O)CC3CCCNC3)c2)c1 (centres unmarked) [Compound A-6] | > 100
61 | Cc1cccc(-c2cc(Cl)c(F)c(C(=O)NNS(=O)(=O)C[C@@H]3CCCNC3)c2)c1 [Compound A-10] | > 100

The remaining lines, values ahead:

Row | IC50 [µM] | Structure (SMILES)
62 | > 100 | CCN1CCCC(CS(=O)(=O)NNC(=O)c2cc(-c3cccc(C)c3)cc(Cl)c2F)C1 (centres unmarked) [Compound A-9]
63 | 10 to 50 | Cc1c(-c2ccccc2)ccc(F)c1C(=O)NNS(=O)(=O)c1ccc(Cl)cc1 [Compound A-1]
64 | ≤ 10 | Cc1cccc(-c2cc(Cl)c(F)c(C(=O)NNS(=O)(=O)CC3CN(C)CCO3)c2)c1 (centres unmarked) [Compound A-11]
65 | > 100 | Cc1cccc(-c2cc(Cl)c(F)c(C(=O)NNS(=O)(=O)C[C@H]3CCCNC3)c2)c1 [Compound A-7]
66 | > 100 | Cc1cccc(-c2cc(Cl)c(F)c(C(=O)NNS(=O)(=O)CCCN(C)Cc3ccccc3)c2)c1 [Compound A-18]
67 | > 100 | Cc1cccc(-c2cc(C)c(F)c(C(=O)NNS(=O)(=O)CC3CCN(C(=O)OC(C)(C)C)C3)c2)c1 (centres unmarked) [Compound A-2]
68 | > 100 | Cc1cccc(-c2cc(C)c(F)c(C(=O)NNS(=O)(=O)CC3CCNC3)c2)c1 (centres unmarked) [Compound A-3]
